What was measured:
HT-1080-FAP cells [1] = assay: efflux experiments in HT-1080-FAP cells; type: cell-based, human; conditions: preincubated 1 h, up to 4 h
Description: (§1) The human fibrosarcoma cell lines HT-1080 and HT-1080-FAP transferred with human FAP gene were both cultured in Dulbecco modified Eagle medium supplemented with 10% fetal bovine serum (Gibco, USA) at 37℃/5% carbon dioxide. For cell uptake experiments, HT-1080-FAP cells (~ 1 × 10^5/well) or HT-1080 (~ 1 × 10^5/well) were seeded in 24-well plates for 24–48 h and incubated at 37℃ with radiolabeled compounds (74 kBq/well) in 0.5 mL of serum-free medium for indicated times. Non-specific binding was determined by co-incubating with 100 μM FAP inhibitor UAMC1110. For competitive FAP binding assays, HT-1080-FAP cells were incubated with [^177Lu]Lu-FAPI-04 (74 kBq/well) in the presence of different concentrations (10^−3–10^4 nM) of competing non-radioactive ligands. For internalization experiments, the radiotracer-incubated cells were washed twice with PBS (pH 7.4), followed by glycine–HCl (0,05 M, pH = 2.8) solution to distinguish between cell surface–bound (acid-releasable) and internalized (acid-resistant) radioligand. For efflux experiments, cells were preincubated with [^177Lu]21 or [^177Lu]Lu-FAPI-04 for 1 h and subsequently incubated at 37 °C in a medium free of radiotracer and serum for different time periods. […] Cell lysates were collected and the radioactivity was determined using a γ-counter.

HT-1080-FAP cells [2] = assay: cell uptake in HT-1080-FAP cells; type: cell-based, human
Description: The human fibrosarcoma cell lines HT-1080 and HT-1080-FAP transferred with human FAP gene were both cultured in Dulbecco modified Eagle medium supplemented with 10% fetal bovine serum (Gibco, USA) at 37℃/5% carbon dioxide. For cell uptake experiments, HT-1080-FAP cells (~ 1 × 10^5/well) or HT-1080 (~ 1 × 10^5/well) were seeded in 24-well plates for 24–48 h and incubated at 37℃ with radiolabeled compounds (74 kBq/well) in 0.5 mL of serum-free medium for indicated times. Non-specific binding was determined by co-incubating with 100 μM FAP inhibitor UAMC1110. For competitive FAP binding assays, HT-1080-FAP cells were incubated with [^177Lu]Lu-FAPI-04 (74 kBq/well) in the presence of different concentrations (10^−3–10^4 nM) of competing non-radioactive ligands. For internalization experiments, the radiotracer-incubated cells were washed twice with PBS (pH 7.4), followed by glycine–HCl (0,05 M, pH = 2.8) solution to distinguish between cell surface–bound (acid-releasable) and internalized (acid-resistant) radioligand. For efflux experiments, cells were preincubated with [^177Lu]21 or [^177Lu]Lu-FAPI-04 for 1 h and subsequently incubated at 37 °C in a medium free of radiotracer and serum for different time periods. The medium was removed and the cells were washed twice with cold PBS (pH 7.4) and subsequently lysed with 0.5 mL of NaOH (1 M). Cell lysates were collected and the radioactivity was determined using a γ-counter.

[3] = in vitro stability in PBS or murine serum (radio-HPLC); type: in vitro ADME
Description: [^18F]21 or [^177Lu]21 (50 μCi, 10 μL) was added to PBS (90 μL) or murine serum (90 μL) and the mixture was incubated at 37 °C for a certain time ([^18F]21: 2 h, [^177Lu]21: 8 d). The PBS mixture was injected directly into the radio-HPLC for analysis. The murine serum was precipitated with 0.1 mL of acetonitrile and centrifuged (10,000 rpm, 5 min). The supernatant was measured and analyzed by the radio-HPLC to determine the stability. For in vivo stability study, the radio tracers were injected into the tail vein of ICR mice and samples of blood were collected after a certain time post injection (pi) ([^18F]21: 4 h, [^177Lu]21: 9 h). The plasma proteins were precipitated using an equal volume of acetonitrile and centrifuged (10,000 rpm, 5 min). The RCP of radio tracer in supernatants were analyzed and quantified by radio-HPLC. The radio-HPLC method was as follows: A: 0.1% TFA in H2O, B: ACN, 0–10 min, 0–100% B. The flow rate was 1 mL/min, and the C18 column (4.6 × 150 mm, 5 μm, ZORBAX, Agilent) was used. When using HPLC to assess the stability of [^177Lu]21, the effluent was collected every 30 s due to its less radioactivity, and samples were measured by an automatic γ-counter (2480 Wizard2, Perkin Elmer). The counted samples were plotted as intensity (cpm) against fraction.

HT-1080-FAP xenograft = assay: SPECT imaging, HT-1080-FAP xenograft; type: in vivo, BALB/C-nu/nu mice; conditions: about 37 MBq i.v.
Description: All animal experiments were conducted in compliance with a protocol approved by the First Affiliated Hospital of Sun Yat-sen University Institutional Animal Care and Use Committee. BALB/C-nu/nu mice (4–5-week old with body weight of 16–22 g) were purchased from GemPharmatech Co., Ltd. Mice were housed under standard conditions with temperature and light control (12-h-light/12-h-dark cycle) and had free access to water and food. For the tumor model, HT-1080-FAP or HT-1080 cells (5 × 10^6) were subcutaneously injected into the right or left flank of nude mice, respectively. As the tumor diameter reached 3–4 mm, mice were treated with radioligands. Micro-PET and SPECT imaging studies, as well as biodistribution, were conducted when the tumor diameter reached 5–10 mm.
The mice bearing HT-1080-FAP or HT-1080 xenografts were injected with about 37 MBq of [^177Lu]21 via the tail vein, and SPECT (Siemens, Symbia Intevo Bold, Germany) was performed at 2 h to 8 d after injection. The SPECT parameters were as follows: medium-energy collimator, energy peaks of 113 and 208 keV, matrix of 256 × 256, and scan duration of 10 min.

HT-1080-FAP cells [4] = assay: internalization experiments in HT-1080-FAP cells; type: cell-based, human; conditions: 10 min
Description: as §1

HT-1080 cells = assay: cell uptake in HT-1080 (FAP negative) cells; type: cell-based, human
Description: as §1

CC(C)(C)[Si](F)(c1ccc(C(=O)NCC(NC(=O)CCC(C(=O)O)N2CCN(CC(=O)[O-])CCN(CC(=O)[O-])CCN(CC(=O)[O-])CC2)C(=O)NCC2CCC(C(=O)NCCCOc3ccc4nccc(C(=O)NCC(=O)N5CC(F)(F)CC5C#N)c4c3)CC2)cc1)C(C)(C)C.[177Lu+3] (stereo not shown) [[^177Lu]21]
efflux (HT-1080-FAP cells [1]): slower excretion up to 4 h than [^177Lu]Lu-FAPI-04
cell uptake (HT-1080-FAP cells [2]; 1 h incubation): 72.53% ± 3.43
cell uptake (HT-1080-FAP cells [2]; 24 h incubation): 45.06% ± 2.62
cell uptake with competitor (HT-1080-FAP cells [2]; co-incubation with 100 μM FAP inhibitor UAMC1110): could be blocked by FAP inhibitor
RCP after incubating in saline and serum ([3]; 8 days, 37 °C): > 90%
in vitro stability ([3]; as summarised in discussion): > 90%
time pi up to which high accumulation was observed (SPECT) (HT-1080-FAP xenograft): up to 144 h
time up to which tumor uptake could be visualized (SPECT) (HT-1080-FAP xenograft): up to 6 days
internalization rate (HT-1080-FAP cells [4]): > 80%
cell uptake in FAP negative cells (HT-1080 cells): Almost no uptakes

Source: article PMC10250256, “A radiohybrid theranostics ligand labeled with fluorine-18 and lutetium-177 for fibroblast activation protein-targeted imaging and radionuclide therapy” (European Journal of Nuclear Medicine and Molecular Imaging, 2023)
